Measured values published in patent US6455727B1, “Process for preparing carbetapentane tannate” (Jame Fine Chemicals, Inc., priority 2001, dated 2002).
Structures can show the parent of a compound that is named as a salt. Where two headings read alike, the source gives them in different places.

Experiments:
[1] = background statement, cited from earlier work; for solubility in alcohol: alcohol(s)
[2] = solubility in water, alcohols and methylene chloride; type: physicochemical; conditions: description of product and starting materials

| Molecule | solubility in alcohol [1] | solubility in water [1] | solubility in alcohols [2] | solubility in methylene chloride [2] | solubility in water [2] |
| --- | --- | --- | --- | --- | --- |
| CCN(CC)CCOCCOC(=O)C1(c2ccccc2)CCCC1 [carbetapentane citrate] | slightly soluble | freely soluble | – | – | – |
| CCN(CC)CCOCCOC(=O)C1(c2ccccc2)CCCC1 [carbetapentane, 2-(diethylaminoethoxy)ethyl-1-phenyl-1-cyclopentanecarboxylate] | – | insolubility | soluble | soluble | insoluble |
| O=C(OC[C@H]1O[C@@H](OC(=O)c2cc(O)c(O)c(OC(=O)c3cc(O)c(O)c(O)c3)c2)[C@H](OC(=O)c2cc(O)c(O)c(OC(=O)c3cc(O)c(O)c(O)c3)c2)[C@@H](OC(=O)c2cc(O)c(O)c(OC(=O)c3cc(O)c(O)c(O)c3)c2)[C@@H]1OC(=O)c1cc(O)c(O)c(OC(=O)c2cc(O)c(O)c(O)c2)c1)c1cc(O)c(O)c(OC(=O)c2cc(O)c(O)c(O)c2)c1 [tannic acid] | highly soluble | highly soluble | soluble | insoluble | soluble |
| carbetapentane tannate | – | – | soluble | insoluble | slightly soluble |
